# Assay results reported in patent US20230232827A1, “METHOD FOR C[…] RUST FUNGUS RESISTANT TO QoI FUNGICIDES” (SUMITOMO CHEMICAL COMPANY, LIMITED, priority 2020, published 2023).
# Tested on: soybean rust fungus (Phakopsora pachyrhizi) having an amino acid substitution of F129L in a mitochondrial cytochrome b protein
# Experiment: Leaf disc test of control of soybean rust (lesion area) after spraying the test compound
# Format: in vivo
# Conditions: Comparative Test Example 1, according to Test Example 1
# Protocol: A true leaf of a soybean (cultivar: Kurosengoku) was cut into a diameter of 1 cm to prepare each leaf disc. To each well of a 24 well microplate was dispensed 1 mL of an agar medium (agar concentration 1.2%), and then one of said leaf disc was placed on each well. To a mixture of Sorpol (registered trademark) 1200KX (0.5 μL), DMSO (4.5 μL), and xylene (5 μL) was added a DMSO solution (20 μL) comprising a test compound (10000 ppm), and the resulting mixture was mixed. The resulting mixture was diluted with ion exchange water to prepare a spray solution comprising a prescribed concentration of the test compound. Said spray solution was sprayed into each leaf disc at a ratio of 10 μL per leaf disc. After 1 day, an aqueous suspension of spores of soybean rust fungus (Phakopsora pachyrhizi) having an amino acid substitution of F129L in a mitochondrial cytochrome b protein (1.0×10^5/mL) was inoculated by spraying on each leaf disc. After the inoculation, the microplate was placed into an artificial climate chamber (Lighting: 6 hours, Lights-out: 18 hours, Temperature: 23° C., Humidity: 60%). After 1 day, the leaf discs were air-dried until water droplets on the surfaces of the leaf discs disappeared, and the microplate was placed into the artificial climate chamber again for 12 days. Then, lesion area of soybean rust was investigated. As a result, when the prescribed concentration was 50 ppm, each lesion area of leaf disc treated with any one of the Present compound 2 to 13, 15 to 30, 33 to 40, 42 to 49, 52 to 56, 58, 60, 65, 66, or 74 to 79 as the test compound was 30% or less relative to the lesion area of non-treated leaf disc. Here, the term of “non-treated” means that a spray solution comprising a test compound was not sprayed into a leaf disc.
# Each test is carried out according to the Test Example 1 by using any one of the Present compound S as the test compound with a prescribed concentration of 12.5 ppm. As a result, control effects on soybean rust can be confirmed in the leaf discs treated with test compounds.
# Each test is carried out according to the Test Example 1 by using any one of the Present compound S as the test compound with a prescribed concentration of 3.1 ppm. As a result, control effects on soybean rust can be confirmed in the leaf discs treated with test compounds.
# Each test was carried out according to the Test Example 1 by using the Present compound 4, 3, 11, or 42, or azoxystrobin, dimoxystrobin, or metominostrobin as the test compound with a prescribed concentration of 50 ppm.
row,SMILES,Lesion area (%) at the concentration of 50 ppm
1,"CNC(=O)/C(=N/OC)c1ccccc1COc1cc(C)ccc1C [Dimoxystrobin, reference compound]",100%
2,CO/C=C(/C(=O)OC)n1ccc2ccc(/C(C)=N/OC)cc21 [Present compound 42],0%
3,CO/C=C(/C(=O)OC)n1c2ccccc2c2ccc(Br)cc21 [Present compound 4],0%
4,CO/C=C(/C(=O)OC)n1ccc2ccc(C#CC3CC3)cc21 [Present compound 11],0%
5,"CNC(=O)/C(=N/OC)c1ccccc1Oc1ccccc1 [Metominostrobin, reference compound]",100%
6,"CO/C=C(/C(=O)OC)c1ccccc1Oc1cc(Oc2ccccc2C#N)ncn1 [Azoxystrobin, reference compound]",100%
7,CO/C=C(/C(=O)OC)n1ncc2ccc(-c3ccccc3)cc21 [Present compound 3],0%
